The text below walks through data of patent US20230295157A1, “3-(1H-IMIDAZOL-2-YL)-2,3,8,8A-TETRAHYDROINDOLIZIN-5(1H)-ONE DERIVATIVES USEFUL AS FACTOR XIA INHIBITORS” (JANSSEN PHARMACEUTICA NV, priority 2020, published 2023).

Where two headings read alike, the source gives them in different places.

For one assay, the target named is Factor XIa (Homo sapiens (Human), UniProt P03951). Briefly: Factor XIa inhibition assay (FLINT) utilizing a fluorophore-quencher pair peptide substrate. In kind it is biochemical. To be noted: 30 min preincubation, kinetic reads over 30 min, read-out: FXIa Kin Inh IC50. Summed up:
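FXIa ([…]) preincubated 30 min with compound (11-point 3-fold dilution, top 100 nM, 2% DMSO), then 15 μM quenched FXI Arg146-based peptide added; Tris pH 7.5, CaCl2, BSA, CHAPS. Fluorescence 485/520 nm read kinetically every 5 min over 30 min at RT; IC50 by 4-parameter fit.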

Another assay deals with human plasma kallikrein (Homo sapiens (Human), UniProt P03952). Briefly: Kallikrein inhibition assay (FLINT) utilizing a quenched AMC peptide substrate. The format is biochemical. The note with it: 30 min preincubation, read-out: Kallikrein Kin Inh IC50. An outline of the steps:
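Enzyme (2 nM final) pre-incubated 30 min at room temperature with compound (11-point, 3-fold, top 1 μM, 2% DMSO), then 50 μM Z-Gly-Pro-Arg-AMC added in Tris pH 7.5 buffer. Kinetic fluorescence 340/440 nm every 5 min over 30 min; IC50 from 4-parameter logistic fit.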

The mark [1] stands for this setting: 5Fam-KLTRAETV-K5Tamra substrate 15 μM.
The mark [2] stands for this setting: kinetic reads over 30 min, Z-Gly-Pro-Arg-AMC substrate 50 μM.
Setting [3] is: 5Fam-[…]-K5Tamra substrate 15 μM.

Chain of human plasma kallikrein (P03952 391-638): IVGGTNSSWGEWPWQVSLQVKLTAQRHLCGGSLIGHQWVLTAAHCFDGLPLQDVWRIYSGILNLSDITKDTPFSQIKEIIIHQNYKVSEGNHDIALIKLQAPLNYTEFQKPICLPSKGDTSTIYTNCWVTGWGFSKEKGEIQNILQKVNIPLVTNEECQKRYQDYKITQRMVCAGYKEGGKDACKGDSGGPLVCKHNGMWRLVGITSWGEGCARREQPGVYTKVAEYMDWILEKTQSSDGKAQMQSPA
Chain of human plasma kallikrein (P03952 20-390 partner): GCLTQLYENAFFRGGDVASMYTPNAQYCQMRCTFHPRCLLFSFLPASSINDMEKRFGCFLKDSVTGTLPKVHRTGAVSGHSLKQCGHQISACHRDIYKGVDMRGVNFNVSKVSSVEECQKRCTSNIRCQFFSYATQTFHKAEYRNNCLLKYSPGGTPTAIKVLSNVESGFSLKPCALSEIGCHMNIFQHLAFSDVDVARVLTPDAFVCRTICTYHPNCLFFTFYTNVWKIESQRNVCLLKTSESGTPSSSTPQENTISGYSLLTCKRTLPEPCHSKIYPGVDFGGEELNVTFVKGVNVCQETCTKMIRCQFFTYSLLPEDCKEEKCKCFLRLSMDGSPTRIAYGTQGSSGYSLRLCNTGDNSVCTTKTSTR
Chain of Factor XIa (P03951 388-625): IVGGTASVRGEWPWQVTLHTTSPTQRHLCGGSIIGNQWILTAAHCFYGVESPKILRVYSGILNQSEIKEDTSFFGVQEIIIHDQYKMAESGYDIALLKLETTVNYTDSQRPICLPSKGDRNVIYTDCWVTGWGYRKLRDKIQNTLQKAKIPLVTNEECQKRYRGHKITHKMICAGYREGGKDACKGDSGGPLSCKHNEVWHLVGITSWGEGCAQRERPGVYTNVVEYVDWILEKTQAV
Chain of Factor XIa (P03951 19-387 partner): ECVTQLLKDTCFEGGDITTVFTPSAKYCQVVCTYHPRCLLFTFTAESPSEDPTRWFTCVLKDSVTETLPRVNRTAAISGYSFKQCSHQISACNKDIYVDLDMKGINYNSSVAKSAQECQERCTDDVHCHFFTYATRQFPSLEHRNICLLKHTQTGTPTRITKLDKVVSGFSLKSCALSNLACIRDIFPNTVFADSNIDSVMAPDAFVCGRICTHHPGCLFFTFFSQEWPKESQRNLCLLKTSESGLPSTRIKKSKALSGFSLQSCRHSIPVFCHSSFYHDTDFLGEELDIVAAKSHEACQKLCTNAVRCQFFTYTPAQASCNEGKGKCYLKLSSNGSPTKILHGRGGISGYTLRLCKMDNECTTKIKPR

Regarding `NC(=O)c1cc(-c2cnc([C@@H]3CC[C@@H]4CC(c5c(-n6cnnn6)ccc(Cl)c5F)=CC(=O)N43)[nH]2)cs1` [Example 234, 4 (2-((3S,8aR)-7-(3-Chloro-2-fluoro-6-(1H-tetrazol-1-yl)phenyl)-5-oxo-1,2,3,5,8,8a-hexahydroindolizin-3-yl)-1H-imidazol-5-yl)thiophene-2-carboxamide], the figures for the IC50 at Factor XIa (setting [1]) and at human plasma kallikrein (setting [2]) were 1 nM and 0.0006 µM, respectively.
As to `O=C1C=C(c2c(-n3cnnn3)ccc(Cl)c2F)C[C@H]2CC[C@@H](c3ncc(-c4ccc(CO)nc4Cl)[nH]3)N12` [Example 236, (3S,8aR)-7-(3-Chloro-2-fluoro-6-(1H-tetrazol-1-yl)phenyl)-3-(5-(2-chloro-6-(hydroxymethyl)pyridin-3-yl)-1H-imidazol-2-yl)-2,3,8,8a-tetrahydroindolizin-5(1H)-one], the 50% inhibitory concentration (IC50) (commonly the midpoint of a concentration-inhibition curve) on Factor XIa (setting [1]) was 5.3 nM; at human plasma kallikrein (setting [2]), 0.0216 µM.
For the compound `NC(=O)c1cccc(-c2cnc([C@@H]3CC[C@@H]4CC(c5c(-n6cnnn6)ccc(Cl)c5F)=CC(=O)N43)[nH]2)c1F` [Example 237, 3-(2-((3S,8aR)-7-(3-Chloro-2-fluoro-6-(1H-tetrazol-1-yl)phenyl)-5-oxo-1,2,3,5,8,8a-hexahydroindolizin-3-yl)-1H-imidazol-5-yl)-2-fluorobenzamide], the IC50 at Factor XIa (setting [1]) was 5.6 nM; on human plasma kallikrein (setting [2]), 0.0015 µM.
On the same counts, the results for `O=C(Nc1cnc(C(F)(F)F)cc1-c1cnc([C@@H]2CC[C@@H]3CC(c4c(-n5cnnn5)ccc(Cl)c4F)=CC(=O)N32)[nH]1)C1CC1` [Example 241, N-[4-[2-[(3S,8aR)-7-[3-Chloro-2-fluoro-6-(tetrazol-1-yl)phenyl]-5-oxo-2,3,8,8a-tetrahydro-1H-indolizin-3-yl]-1H-imidazol-5-yl]-6-(trifluoromethyl)-3-pyridyl]cyclopropanecarboxamide] are 3.3 nM and 0.0149 µM.
For the compound `O=C(Nc1cnc(C(F)(F)F)cc1-c1cnc([C@@H]2CC[C@H]3CC(c4c(-n5cnnn5)ccc(Cl)c4F)=CC(=O)N32)[nH]1)C1CC1` [Example 242, N-[4 [2-[(3S,8aS)-7-[3-Chloro-2-fluoro-6-(tetrazol-1-yl)phenyl]-5-oxo-2,3,8,8a-tetrahydro-1H-indolizin-3-yl]-1H-imidazol-5-yl]-6-(trifluoromethyl)-3-pyridyl]cyclopropanecarboxamide], the IC50 on Factor XIa (setting [1]) amounted to 10.8 nM; at human plasma kallikrein (setting [2]), 0.0187 µM.
Consider `[2H]C([2H])([2H])C(=O)Nc1cnc(C(F)(F)F)cc1-c1cnc([C@@H]2CC[C@@H]3CC(c4c(-n5cnnn5)ccc(Cl)c4F)=CC(=O)N32)[nH]1` [Example 243, N-[4-[2-[(3S,8aR)-7-[3-Chloro-2-fluoro-6-(tetrazol-1-yl)phenyl]-5-oxo-2,3,8,8a-tetrahydro-1H-indolizin-3-yl]-1H-imidazol-5-yl]-6-(trifluoromethyl)-3-pyridyl]-2,2,2-trideuterio-acetamide], for which the figures for the half-maximal inhibitory concentration (IC50) on Factor XIa (setting [3]) and on human plasma kallikrein (setting [2]) were 52 nM and 0.653 µM, respectively.
In the case of `CC(=O)Nc1cnc(C(F)(F)F)cc1-c1cnc([C@@H]2CC[C@H]3CC(c4c(-n5cnnn5)ccc(Cl)c4F)=CC(=O)N32)[nH]1` [Example 244, N-[4 [2-[(3S,8aS)-7-[3-Chloro-2-fluoro-6-(tetrazol-1-yl)phenyl]-5-oxo-2,3,8,8a-tetrahydro-1H-indolizin-3-yl]-1H-imidazol-5-yl]-6-(trifluoromethyl)-3-pyridyl]acetamide], the IC50 on Factor XIa (setting [1]) was more than 100 nM; at human plasma kallikrein (setting [2]) it was 0.73 µM.
With `CC(=O)Nc1cnc(C(F)(F)F)cc1-c1cnc([C@@H]2CC[C@@H]3CC(c4c(-n5cnnn5)ccc(Cl)c4F)=CC(=O)N32)[nH]1` [Example 245, N-[4-[2-[(3S,8aR)-7-[3-Chloro-2-fluoro-6-(tetrazol-1-yl)phenyl]-5-oxo-2,3,8,8a-tetrahydro-1H-indolizin-3-yl]-1H-imidazol-5-yl]-6-(trifluoromethyl)-3-pyridyl]acetamide], the IC50 at Factor XIa (setting [1]) came out at 76.8 nM; on human plasma kallikrein (setting [2]) it was 0.558 µM.
Regarding `CC(F)(F)C(=O)Nc1cnccc1-c1c[nH]c([C@@H]2CCC3CC(c4c(-n5cnnn5)ccc(Cl)c4F)=CC(=O)N32)n1` (stereo partly drawn) [Example 246, N-[4-[2-[(3S)-7-[3-Chloro-2-fluoro-6-(tetrazol-1-yl)phenyl]-5-oxo-2,3,8,8a-tetrahydro-1H-indolizin-3-yl]-1H-imidazol-4-yl]-3-pyridyl]-2,2-difluoro-propanamide], the IC50 is 1.8 nM at Factor XIa (setting [1]) and 0.141 µM on human plasma kallikrein (setting [2]).
With `Cn1ncc(NC(=O)C2CC2)c1-c1c[nH]c([C@@H]2CC[C@H]3CC(c4c(-n5cnnn5)ccc(Cl)c4F)=CC(=O)N32)n1` [Example 247, N-[5-[2-[(3S,8aS)-7-[3-Chloro-2-fluoro-6-(tetrazol-1-yl)phenyl]-5-oxo-2,3,8,8a-tetrahydro-1H-indolizin-3-yl]-1H-imidazol-4-yl]-1-methyl-pyrazol-4-yl]cyclopropanecarboxamide], the figures for the half-maximal inhibitory concentration (IC50) at Factor XIa (setting [1]) and on human plasma kallikrein (setting [2]) were 0.7 nM and 0.0156 µM, respectively.
For the compound `O=C(Nc1ccsc1-c1c[nH]c([C@@H]2CCC3CC(c4c(-n5cnnn5)ccc(Cl)c4F)=CC(=O)N32)n1)C1CC1` (stereo partly drawn) [Example 248, N-[2-[2-[(3S)-7-[3-Chloro-2-fluoro-6-(tetrazol-1-yl)phenyl]-5-oxo-2,3,8,8a-tetrahydro-1H-indolizin-3-yl]-1H-imidazol-4-yl]-3-thienyl]cyclopropanecarboxamide], the figures for the IC50 at Factor XIa (setting [1]) and at human plasma kallikrein (setting [2]) were 1 nM and 0.0015 µM, respectively.
With `CCOC(=O)Nc1ccncc1-c1c[nH]c([C@@H]2CCC3CC(c4c(-n5cnnn5)ccc(Cl)c4F)=CC(=O)N32)n1` (stereo partly drawn) [Example 251, Ethyl N-[3-[2-[(3S)-7-[3-chloro-2-fluoro-6-(tetrazol-1-yl)phenyl]-5-oxo-2,3,8,8a-tetrahydro-1H-indolizin-3-yl]-1H-imidazol-4-yl]-4-pyridyl]carbamate], the IC50 was determined as 32.2 nM on Factor XIa (setting [1]) and 0.226 µM at human plasma kallikrein (setting [2]).
In the case of `O=C(Nc1ccncc1-c1c[nH]c([C@@H]2CCC3CC(c4c(-n5cnnn5)ccc(Cl)c4F)=CC(=O)N32)n1)C1CC1` (stereo partly drawn) [Example 252, N-[3-[2-[(3S)-7-[3-Chloro-2-fluoro-6-(tetrazol-1-yl)phenyl]-5-oxo-2,3,8,8a-tetrahydro-1H-indolizin-3-yl]-1H-imidazol-4-yl]-4-pyridyl]cyclopropanecarboxamide], the IC50 on Factor XIa (setting [1]) was 0.6 nM; at human plasma kallikrein (setting [2]) it was 0.0045 µM.
Regarding `Nc1ccncc1-c1c[nH]c([C@@H]2CCC3CC(c4c(-n5cnnn5)ccc(Cl)c4F)=CC(=O)N32)n1` (stereo partly drawn) [Example 253, (3S)-3-[4-(4-Amino-3-pyridyl)-1H-imidazol-2-yl]-7-[3-chloro-2-fluoro-6-(tetrazol-1-yl)phenyl]-2,3,8,8a-tetrahydro-1H-indolizin-5-one], the half-inhibitory concentration (IC50) is more than 100 nM at Factor XIa (setting [1]) and more than 1 µM at human plasma kallikrein (μM, kinetic reads).
As for `CCOC(=O)Nc1ncccc1-c1c[nH]c([C@@H]2CC[C@@H]3CC(c4c(-n5cnnn5)ccc(Cl)c4F)=CC(=O)N32)n1` [Example 254, Ethyl N-[3-[2-[(3S,8aR)-7-[3-chloro-2-fluoro-6-(tetrazol-1-yl)phenyl]-5-oxo-2,3,8,8a-tetrahydro-1H-indolizin-3-yl]-1H-imidazol-4-yl]-2-pyridyl]carbamate], the IC50 on Factor XIa (setting [1]) came out at 16.7 nM; on human plasma kallikrein (setting [2]), 0.15 µM.
For the compound `Cn1cnc(-c2c[nH]c([C@@H]3CCC4CC(c5c(-n6cnnn6)ccc(Cl)c5F)=CC(=O)N43)n2)n1` (stereo partly drawn) [Example 255, (3S)-7-[3-Chloro-2-fluoro-6-(tetrazol-1-yl)phenyl]-3-[4-(1-methyl-1,2,4-triazol-3-yl)-1H-imidazol-2-yl]-2,3,8,8a-tetrahydro-1H-indolizin-5-one], the IC50 is more than 100 nM on Factor XIa (setting [1]) and more than 1 µM at human plasma kallikrein (μM, kinetic reads).
Turning to `[2H]C([2H])([2H])C(=O)Nc1cnccc1-c1c[nH]c([C@@H]2CCC3CC(c4c(-n5cnnn5)ccc(Cl)c4F)=CC(=O)N32)n1` (stereo partly drawn) [Example 256, N-[4-[2-[(3S)-7-[3-Chloro-2-fluoro-6-(tetrazol-1-yl)phenyl]-5-oxo-2,3,8,8a-tetrahydro-1H-indolizin-3-yl]-1H-imidazol-4-yl]-3-pyridyl]-2,2,2-trideuterio-acetamide], the 50% inhibitory concentration (IC50) was 1.4 nM on Factor XIa (setting [3]) and 0.0675 µM at human plasma kallikrein (setting [2]).
On to `CNc1n[nH]c2cc(-c3cnc([C@@H]4CCC5CC(c6c(-n7cnnn7)ccc(Cl)c6F)=CC(=O)N54)[nH]3)ccc12` (stereo partly drawn) [Example 258, (3S)-7-[3-Chloro-2-fluoro-6-(tetrazol-1-yl)phenyl]-3-[5-[3-(methylamino)-1H-indazol-6-yl]-1H-imidazol-2-yl]-2,3,8,8a-tetrahydro-1H-indolizin-5-one], for which the IC50 on Factor XIa (setting [1]) was found to be 0.3 nM; on human plasma kallikrein (setting [2]), 0.0008 µM.
`Cn1cc(-c2c[nH]c([C@@H]3CCC4CC(c5c(-n6cnnn6)ccc(Cl)c5F)=CC(=O)N43)n2)c(NC(=O)C2CC2)n1` (stereo partly drawn) [Example 259, N-[4-[2-[(3S)-7-[3-Chloro-2-fluoro-6-(tetrazol-1-yl)phenyl]-5-oxo-2,3,8,8a-tetrahydro-1H-indolizin-3-yl]-1H-imidazol-4-yl]-1-methyl-pyrazol-3-yl]cyclopropanecarboxamide]: the IC50 was found to be 2.7 nM on Factor XIa (setting [1]) and 0.021 µM at human plasma kallikrein (setting [2]).
On the same counts, the results for `CNc1ncccc1-c1cnc([C@@H]2CCC3CC(c4c(-n5cnnn5)ccc(Cl)c4F)=CC(=O)N32)[nH]1` (stereo partly drawn) [Example 260, (3S)-7-[3-Chloro-2-fluoro-6-(tetrazol-1-yl)phenyl]-3-[4-[2-(methylamino)-3-pyridyl]-1H-imidazol-2-yl]-2,3,8,8a-tetrahydro-1H-indolizin-5-one] are more than 100 nM and 0.462 µM.
